Measured values taken from patent US20240246916A1, “7-NITRO-8-HYDROXYQUINOLINE DERIVATIVES, PREPARATION METHOD THEREFORE AND MEDICAL USE THEREOF” (Jiangsu Yahong Meditech Co., Ltd., priority 2021, published 2024).
Values after ≈ are worked out from the molar mass of the structure shown.

Experiments:
Type in all cases: cell-based
[1] = tested on: Staphylococcus aureus (methicillin-resistant and sensitive clinical isolates; ATCC29213); experiment: MIC by micro broth dilution (CLSI), Staphylococcus aureus; settings: for MIC50 / MIC90: Clinical strain; for MIC50: read-out: MIC50; for MIC90: read-out: MIC90; for MIC: Standard strain ATCC29213, read-out: MIC
Procedure, shortened: (§1)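 First, DMSO solutions were diluted over 128 to 0.06 mg/L in CAMHB; next, overnight cultures adjusted to 0.5 McFarland and diluted 100-fold were added to give 10^5 CFU/mL; then incubation ran 20 hours at 35±2° C, with CLSI 2019 M100 used for interpretation.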

[2] = tested on: Bladder cancer cell line UM-UC-3; experiment: Inhibitory activity on cancer cells, CellTiter-Glo viability, UM-UC-3; settings: Homo sapiens, UMUC3, 72 hours treatment
Procedure, shortened: (§2)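 24 h attachment; HUVEC 2000, UM-UC-3/RM-1 3000, LNCaP 5000 cells/well. 8-pt 2.5× dilution from 100 μmol, 72 h, 37 °C/5% CO2. CellTiter-Glo; IC50 from curve fit; max = cells + DMSO vehicle, min = medium only.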

[3] = tested on: Endothelial cell line HUVEC; experiment: Inhibitory activity on cells, CellTiter-Glo viability, HUVEC; settings: Homo sapiens, 72 hours treatment
Procedure, shortened: as §2

[4] = tested on: Prostate cancer cell line LNcaP; experiment: Inhibitory activity on cancer cells, CellTiter-Glo viability, LNcaP; settings: Homo sapiens, 72 hours treatment
Procedure, shortened: as §2

[5] = tested on: Mouse prostate cancer cell line RM1; experiment: Inhibitory activity on cancer cells, CellTiter-Glo viability, RM1; settings: 72 hours treatment
Procedure: HUVEC (purchased from Allcells Biological Technology (Shanghai) Co., Ltd.); UM-UC-3 (ATCC); LNCaP (ATCC); RM-1 (purchased from Nanjing Cobioer Biosciences Co., Ltd.) (1) On the first day, the cells were seeded in a 96-well plate, and the previous medium was poured off. 5 mL of DPBS was added to wash the cells, and then removed by a pipette and discarded. Then, 1 mL of trypsin (0.25%) was added, and the plate was placed in a cell culture incubator at 37 °C, 5% CO2 for digestion, and taken out after about 2 to 5 minutes. New corresponding medium was added, and pipetted to resuspend the cells evenly, and the cells were then counted with an automated cell counter. Regarding HUVEC, the medium used was endothelial cell complete medium; regarding UM-UC-3, the medium used was 89 v % EMEM+10 v % fetal bovine serum+1 v % penicillin-streptomycin double anti-body; regarding LNcaP, the medium used was 89 v % RPM11640+10 v % fetal bovine serum+1 v % penicillin-streptomycin double anti-body; and regarding RM1, the medium used was 89 v % DMEM+10 v % fetal bovine serum+1 v % penicillin-streptomycin double anti-body. (2) HUVEC cells were seeded in columns 1 to 11 of a 96-well plate (Corning, Cat. No. 3610) at a density of 2000 cells per well in 100 μL of medium, and the medium free of cell was added to the wells of column 12. The other three types of cells were also seeded, wherein UM-UC-3 and RM-1 cells were seeded at a density of 3000 cells per well, and LNCap cells were seeded at a density of 5000 cells per well. Then, the plate was placed in an incubator at 37° C., 5% CO2 for 24 hours. (3) On the second day, the compounds of the present invention and the reference drug nitroxoline (obtained according to the preparation method disclosed in the prior art) were diluted in gradient (2.5 folds, started at 100 μmol) to obtain 8 dose points (there were a total of 8 columns of wells; the first column of wells had the highest concentration, the concentration decreased in turn, and the last column of wells had the lowest concentration). 10 μL of the compound diluted in gradient was added to the 100 μL of cells in column 1 to column 10 with an 8-channel pipette. 10 μL of the corresponding medium containing 0.33 v % DMSO was added to column 11 and column 12. The plate was incubated in an incubator at 37° C., 5% CO2 for 72 hours (note: column 11 was used as MAX well with cells and no compounds; and column 12 was used as MIN well with no cells and no compounds). (4) After treating with the compounds of the present invention for 72 hours, the cell viability detection reagents in the above CellTiter-Glo® assay kit were added to the 96-well plate at 50 μL per well according to the instructions. The plate was shaken on a shaker in the dark for 5 to 10 minutes, and then the cell activity was determined by a multifunctional microplate reader. Finally, the growth inhibition of the compounds of the present invention on the cells was plotted by XLFIT 5.3 software, and the IC50 values of the compounds of the present invention were calculated.

[6] = tested on: Acinetobacter baumannii (carbapenem-resistant clinical isolates; ATCC19606); experiment: MIC by micro broth dilution (CLSI), Acinetobacter baumannii; settings: Acinetobacter baumannii; for MIC50 / MIC90: ATCC19606, Clinical strain; for MIC50: read-out: MIC50; for MIC90: read-out: MIC90; for MIC: Standard strain ATCC19606, read-out: MIC
Procedure, shortened: as §1

[7] = tested on: Escherichia coli (carbapenem-resistant clinical isolate; ATCC25922); experiment: MIC by micro broth dilution (CLSI), Escherichia coli; settings: Escherichia coli; for MIC50 / MIC90: ATCC25922, Clinical strain; for MIC50: read-out: MIC50; for MIC90: read-out: MIC90; for MIC: Standard strain ATCC25922, read-out: MIC
Procedure, shortened: as §1

| MIC50 [1] [µg/mL] | MIC90 [1] [µg/mL] | MIC [1] [µg/mL] | IC50 [2] [nM] | IC50 [4] [nM] | IC50 [5] [nM] | MIC50 [6] [µg/mL] | MIC90 [6] [µg/mL] | MIC [6] [µg/mL] | MIC50 [7] [µg/mL] | MIC90 [7] [µg/mL] | MIC [7] [µg/mL] | SMILES | IC50 [3] [nM] |
| --- | --- | --- | --- | --- | --- | --- | --- | --- | --- | --- | --- | --- | --- |
| 8 (≈ 27.1 µM) | 16 (≈ 54.3 µM) | 16 (≈ 54.3 µM) | 860 | 1080 | 3060 | 128 (≈ 434 µM) | 128 (≈ 434 µM) | 128 (≈ 434 µM) | 128 (≈ 434 µM) | 128 (≈ 434 µM) | 128 (≈ 434 µM) | O=[N+]([O-])c1cc(Cl)c2c(OCC3CC3)ccnc2c1O [Example 53, 5-Chloro-4-(cyclopropylmethoxy)-7-nitroquinolin-8-ol] | 590 |
| 16 | 16 | 16 | 1420 | 250 | 1620 | 128 | > 128 | 64 | 32 | 64 | 64 | COCCCOC1CCN(c2ccnc3c(O)c([N+](=O)[O-])cc(Cl)c23)CC1.Cl.Cl [Example 54, 5-chloro-4-(4-(3-methoxypropoxy)piperidin-1-yl)-7-nitroquinolin-8-ol dihydrochloride] | 500 |
| 4 (≈ 11.6 µM) | 4 (≈ 11.6 µM) | 4 (≈ 11.6 µM) | 2230 | 250 | 2880 | > 128 | > 128 | > 128 | > 128 | > 128 | > 128 | O=[N+]([O-])c1cc(Cl)c2c(N3CCC(F)(F)CC3)ccnc2c1O [Example 55, 5-Chloro-4-(4,4-difluoropiperidin-1-yl)-7-nitroquinolin-8-ol] | 800 |
| 64 (≈ 199 µM) | 64 (≈ 199 µM) | 128 (≈ 398 µM) | 52800 | 47600 | 68500 | > 128 | > 128 | > 128 | > 128 | > 128 | > 128 | O=C1CCN(c2ccnc3c(O)c([N+](=O)[O-])cc(Cl)c23)CC1 [Example 56, 1-(5-Chloro-8-hydroxy-7-nitroquinolin-4-yl)piperidin-4-one] | 32100 |
| 16 (≈ 51.8 µM) | 16 (≈ 51.8 µM) | 16 (≈ 51.8 µM) | 1490 | 1500 | 1460 | > 128 | > 128 | 128 (≈ 415 µM) | 128 (≈ 415 µM) | 128 (≈ 415 µM) | 128 (≈ 415 µM) | O=[N+]([O-])c1cc(Cl)c2c(OC3CCCC3)ccnc2c1O [Example 59, 5-Chloro-4-(cyclopentyloxy)-7-nitroquinolin-8-ol] | 780 |
| 16 (≈ 59.6 µM) | 32 (≈ 119 µM) | 16 (≈ 59.6 µM) | 5290 | 5220 | 4260 | > 128 | > 128 | > 128 | > 128 | > 128 | > 128 | CCOc1ccnc2c(O)c([N+](=O)[O-])cc(Cl)c12 [Example 61, 5-Chloro-4-ethoxy-7-nitroquinolin-8-ol] | 2580 |

The next lines start with the molecule.

| SMILES | MIC50 [1] [µg/mL] | MIC90 [1] [µg/mL] | MIC [1] [µg/mL] | IC50 [2] [nM] | IC50 [4] [nM] | IC50 [5] [nM] | MIC50 [6] [µg/mL] | MIC90 [6] [µg/mL] | MIC [6] [µg/mL] | MIC50 [7] [µg/mL] | MIC90 [7] [µg/mL] | MIC [7] [µg/mL] | IC50 [3] [nM] |
| --- | --- | --- | --- | --- | --- | --- | --- | --- | --- | --- | --- | --- | --- |
| CC(C)(C)C(=O)N1CCN(c2ccnc3c(O)c([N+](=O)[O-])cc(Cl)c23)CC1 [Example 45, 4-(5-Chloro-8-hydroxy-7-nitroquinolin-4-yl)-1-(2,2,2-trimethylacetyl)piperazine] | > 128 | > 128 | > 128 | 23600 | 5430 | 12100 | > 128 | > 128 | > 128 | > 128 | > 128 | > 128 | 10100 |
| CCOC(=O)C1CCN(c2ccnc3c(O)c([N+](=O)[O-])cc(Cl)c23)CC1 [Example 46, Ethyl 1-(5-chloro-8-hydroxy-7-nitroquinolin-4-yl)piperidine-4-carboxylate] | 32 (≈ 84.3 µM) | 64 (≈ 169 µM) | 32 (≈ 84.3 µM) | 960 | 880 | 1860 | > 128 | > 128 | > 128 | > 128 | > 128 | > 128 | 560 |
| O=[N+]([O-])c1cc(Cl)c2c(Oc3ccccc3)ccnc2c1O [Example 47, 5-Chloro-7-nitro-4-phenoxyquinolin-8-ol] | 16 (≈ 50.5 µM) | 32 (≈ 101 µM) | 32 (≈ 101 µM) | 2380 | 970 | 6070 | > 128 | > 128 | > 128 | > 128 | > 128 | > 128 | 1590 |
| CS(=O)(=O)N1CCN(c2ccnc3c(O)c([N+](=O)[O-])cc(Cl)c23)CC1 [Example 48, 5-Chloro-4-(4-(methylsulfonyl)piperazin-1-yl)-7-nitroquinolin-8-ol] | 64 (≈ 165 µM) | 64 (≈ 165 µM) | 64 (≈ 165 µM) | 10600 | 10600 | 14400 | > 128 | > 128 | > 128 | > 128 | > 128 | > 128 | 6580 |
| CC(C)C(=O)N1CCN(c2ccnc3c(O)c([N+](=O)[O-])cc(Cl)c23)CC1 [Example 50, 4-(5-Chloro-8-hydroxy-7-nitroquinolin-4-yl)-1-(2,2-dimethylacetyl)piperazine] | > 128 | > 128 | > 128 | 3400 | 2860 | 4290 | > 128 | > 128 | > 128 | > 128 | > 128 | > 128 | 2940 |
| Cl.O=[N+]([O-])c1cc(Cl)c2c(-c3ccccc3)ccnc2c1O [Example 51, 5-chloro-7-nitro-4-phenylquinolin-8-ol hydrochloride] | 1 | 2 | 1 | 2170 | 1510 | 4250 | > 128 | > 128 | > 128 | > 128 | > 128 | > 128 | 1710 |
| CCOC(=O)N1CCN(c2ccnc3c(O)c([N+](=O)[O-])cc(Cl)c23)CC1 [Example 52, Ethyl 4-(5-chloro-8-hydroxy-7-nitroquinolin-4-yl)piperazine-1-carboxylate] | 64 (≈ 168 µM) | 128 (≈ 336 µM) | 128 (≈ 336 µM) | 4710 | 580 | 1420 | > 128 | > 128 | > 128 | > 128 | > 128 | > 128 | 530 |
